This note sets out measurements from patent US20220202739A1, “ENDOCANNABINOID MIMETIC AND ANTI-INFLAMMATORY COMPOUND CONTAINING COMPOSITIONS, METHODS OF PREPARATION AND USES THEREOF” (priority 2019, published 2022).

Holding throughout (type): cell-based, human
Common to all, as to settings: pooled keratinocytes, 20 ppm, 24 hr

The subject of experiment [1] is FLG. Briefly: Gene expression custom microarray, pooled keratinocyte line (Example 3): FLG. The method, then: (§1) Cell cultures: Received and began culture of pooled keratinocyte line from Promocell (C-12006; Lot #448Z026). Cells were seeded into a 75 cm2 flask and 2 6 well dishes for expansion and exposure per manufacturer's protocol using Keratinocyte Growth Medium (C2011B), Keratinocyte Supplement Mix (C39016) and CaCl (C34005). 2 ml of prepared solution were added to each of the 6 wells and 7 ml was added to the 75 cm2 flask.
(§2) Experimental phase: When the appropriate quantity of cells were grown, they were detached as described above, but at the final step were seeded into each well of one or more 6 well dishes. Each well received 2 ml of the cells suspended in suspension so they were seeded equally. The dishes were returned to the incubator until 85-95% confluency is reached.
(§3) It was at this stage that all wells were rinsed in PBS after aspirating the growth media. The compound(s) to be tested were previously mixed into a suitable solvent (e.g., DMSO or ethanol) that can be diluted to the desired concentration of test compound (10 μl) in the culture wells without exceeding maximum solvent concentrations and adversely effecting cell viability, and mixed with Basal Keratinocyte Media. NOTE: Standard maximum levels of solvent are 0.1% for DMSO and 0.5% for ETOH. The concentration for each tested compound/natural extract is generally listed in the left-hand column of Table 4. For certain compositions (e.g., compositions 15 and 16), other concentrations were used and are noted in the body of Table 4.
(§4) Every 2 wells on the 6 well plate served as a biological replicate for the purposes of RNA isolation and genetic expression evaluations making each 6 well dish an n=3 for the test compound contained in the media. […]
(§5) At the end of the 24 hr time period, the plates were removed from the incubator, the test media aspirated, and the cells rinsed with PBS. […] Allow 1 minute for saturation of the membrane and then centrifuge for 2 minutes to complete the RNA elution. • Quantify the quantity of RNA and store at −20 C° until use (no more than 1 month) […]

Experiment [2] has as its system IL1A. Briefly: Gene expression custom microarray, pooled keratinocyte line (Example 3): IL1A. The method, then: as §1, §2, §3, §4, §5
For experiment [3], the system named is MMP1. The experiment is described as follows: Gene expression custom microarray, pooled keratinocyte line (Example 3): MMP1. As to the method: as §1, §2, §3, §4, §5
In experiment [4] the test system is TLR2. Briefly: Gene expression custom microarray, pooled keratinocyte line (Example 3): TLR2. As to the method: as §1, §2, §3, §4, §5

For `C=C(C)[C@@H]1CCC(C)=C[C@H]1c1c(O)cc(CCCCC)cc1O` [CBD, cannabidiol, reference compound], the “↑FLG gene expression, fold increase or decrease vs untreated cells” value in experiment [1] is 1.1 fold. Moreover, the “↓IL1A gene expression, fold increase or decrease vs untreated cells” value in experiment [2] turned out to be 2.3 fold. The “↓MMP1 gene expression, fold increase or decrease vs untreated cells” value in experiment [3] was found to be 6.5 fold. In addition, in experiment [4], the “↑TLR2 gene expression, fold increase or decrease vs untreated cells” value stood at 2.8 fold.
Turning to `CC(C)[C@]12O[C@H]1[C@@H]1O[C@]13[C@]1(O[C@H]1C[C@H]1C4=C(CC[C@@]13C)C(=O)OC4)[C@@H]2O` [Triptolide], the “↑FLG gene expression, fold increase or decrease vs untreated cells” value in experiment [1] came out at 14.4 fold. In addition, the “↓IL1A gene expression, fold increase or decrease vs untreated cells” value in experiment [2] is −14 fold. Besides, the “↓MMP1 gene expression, fold increase or decrease vs untreated cells” value in experiment [3] is 1.2 fold. In addition, the “↑TLR2 gene expression, fold increase or decrease vs untreated cells” value in experiment [4] was −2.9 fold.
On the same counts, the results for `CCCCCCCCCCCCCCCC(=O)NCCO` [N-palmitoylethanolamide] are 28.6 fold, −1.2 fold, 12.2 fold and −1.3 fold.
